Results as given in patent US8664221B2 (Santen Pharmaceutical Co., Ltd., priority 2008, dated 2014).

These compounds were tested on IL-6 production induced by lipopolysaccharide (LPS) in human corneal epithelial cells (HCE-T) (assay: Inhibition of LPS-induced IL-6 production in human corneal epithelial cells (GR agonist activity)). Settings: Corneal epithelial cell, 10 μL of 100 μM test compound solution per well, 4 hours incubation, efficacy relative to DEX.
Format: cell-based
Procedure: In order to evaluate a GR agonist activity of the present compound, the inhibitory effects on the IL-6 production induced by lipopolysaccharide (LPS) in human corneal epithelial cells. IL-6 levels in the conditioned medium were measured using the HTRF human IL-6 Kit (boehringer-Ingelheim, Cat No. 62IL6PEB), and the procedure was carried out according to the protocol attached to the kit. Hereinafter, the specific method will be described.
LPS solution: After LPS was dissolved in phosphate buffer solution (hereinafter referred to as PBS(−)), the resulting solution was diluted with 10% FBS-DMEM/F12 medium, whereby a 1 μg/mL LPS solution was prepared.
After a test compound was dissolved in dimethylsulfoxide (hereinafter referred to as DMSO), the resulting solution was diluted with 10% FBS-DMEM/F12 medium, whereby a 100 μM test compound solution was prepared. A 100 μM DEX solution was prepared by the same method, and the inhibitory ratio of IL-6 production of DEX was evaluated to use for calculating efficacy (% DEX).
Used cell: SV40-immortalized human corneal epithelial cells (HCE-T) (RIKEN)
1) HCE-T cells were harvested, and seeded at 2.0×10^4 cells/0.1 mL/well in a 96-well plate.
2) After incubation overnight, the medium was removed and a 80 μL of new 10% FBS-DMEM/Ham's F12 medium was added into each well.
3) A 10 μL of test compounds solution was added into each well.
4) A 10 μL of LPS solution was added into each well.
5) As a negative control, a 10 μL of 10% FBS-DMEM/Ham's F12 medium was added into each well instead of a test compound solution and a LPS solution.
6) As a positive control, a 10 μL of 10% FBS-DMEM/Ham's F12 medium containing 1% DMSO was added into each well instead of a test compound solution.
7) After 4 hours incubation, supernatants were collected and IL-6 levels in the supernatants were quantitated using the HTRF human IL-6 Kit.
8) The inhibition ratio of IL-6 production (%) was calculated according to the following equation.
The inhibition ratio of IL-6 production (%) was calculated according to the following equation. The inhibition ratio of IL-6 production (%)=100×{1−(IL-6 level in each group−mean value of IL-6 level in negative control)/(mean value of IL-6 level in positive control−mean value of IL-6 level in negative control)} (%)
Furthermore, the inhibition ratio of IL-6 production (efficacy (% DEX)) was also calculated according to the following equation. Efficacy(% DEX)=100×{(mean value of IL-6 inhibition in compound-treated group)/(mean value of IL-6 inhibition in DEX-treated group)} (%) (Results and Discussion)

| SMILES | Emax [%] |
| --- | --- |
| COc1cc(OS(=O)(=O)CCC(F)(F)F)ccc1-c1ccc2c(c1COC(=O)c1ccc(C)s1)N(C)C(=O)C(C)(C)N2 [Compound No. 1-20, 7-[2-Methoxy-4-(3,3,3-trifluoropropylsulfonyloxy)phenyl]-8-(5-methylthiophen-2-ylcarbonyloxymethyl)-1,3,3-trimethyl-3,4-dihydro-1H-quinoxalin-2-one] | 74 |
| CCCS(=O)(=O)Oc1ccc(-c2ccc3c(c2COC(=O)c2ccc(C)cc2)N(C)C(=O)C(C)(C)N3)c(OC)c1 [Compound No. 1-39, 7-(2-Methoxy-4-propylsulfonyloxyphenyl)-8-(4-methylbenzoyloxy-methyl)-1,3,3-trimethyl-3,4-dihydro-1H-quinoxalin-2-one] | 80 |
| COc1cc(OS(=O)(=O)CCCN2CCOCC2)ccc1-c1ccc2c(c1COc1cc(F)ccc1C)N(C)C(=O)C(C)(C)N2 [Compound No. 3-3, 8-(5-Fluoro-2-methylphenoxymethyl)-7-[2-methoxy-4-[3-(morpholin-4-yl)propylsulfonyloxy]phenyl]-1,3,3-trimethyl-3,4-dihydro-1H-quinoxalin-2-one] | 85 |
| COc1cc(OS(=O)(=O)C2CCCC2)ccc1-c1ccc2c(c1COC(=O)c1ccc(C)s1)N(C)C(=O)C(C)(C)N2 [Compound No. 1-24, 7-(4-Cyclopentylsulfonyloxy-2-methoxyphenyl)-8-(5-methylthiophen-2-ylcarbonyloxymethyl)-1,3,3-trimethyl-3,4-dihydro-1H-quinoxalin-2-one] | 85 |
| COc1cc(OS(=O)(=O)C2CCCC2)ccc1-c1ccc2c(c1COc1cc([N+](=O)[O-])ccc1C)N(C)C(=O)C(C)(C)N2 [Compound No. 1-37, 7-(4-Cyclopentylsulfonyloxy-2-methoxyphenyl)-8-(2-methyl-5-nitrophenoxymethyl)-1,3,3-trimethyl-3,4-dihydro-1H-quinoxalin-2-one] | 74 |
| COc1cc(OS(=O)(=O)C(C)C)ccc1-c1ccc2c(c1COc1cc([N+](=O)[O-])ccc1C)N(C)C(=O)C(C)(C)N2 [Compound No. 1-35, 7-(4-Isopropylsulfonyloxy-2-methoxyphenyl)-8-(2-methyl-5-nitro-phenoxymethyl)-1,3,3-trimethyl-3,4-dihydro-1H-quinoxalin-2-one] | 79 |
| COc1cc(OS(=O)(=O)CCCNCc2ccccc2)ccc1-c1ccc2c(c1COc1cc(F)ccc1C)N(C)C(=O)C(C)(C)N2 [Compound No. 3-1, 7-[4-(3-Benzylaminopropylsulfonyloxy)-2-methoxyphenyl]-8-(5-fluoro-2-methylphenoxymethyl)-1,3,3-trimethyl-3,4-dihydro-1H-quinoxalin-2-one] | 78 |
| COc1cc(OS(=O)(=O)CCl)ccc1-c1ccc2c(c1COc1cc(F)ccc1C)N(C)C(=O)C(C)(C)N2 [Compound No. 1-41, 7-(4-Chloromethylsulfonyloxy-2-methoxyphenyl)-8-(5-fluoro-2-methylphenoxymethyl)-1,3,3-trimethyl-3,4-dihydro-1H-quinoxalin-2-one] | 85 |
| COc1cc(OS(=O)(=O)CCCCl)ccc1-c1ccc2c(c1COc1cc(F)ccc1C)N(C)C(=O)C(C)(C)N2 [Compound No. 1-40, 7-[4-(3-Chloropropylsulfonyloxy)-2-methoxyphenyl]-8-(5-fluoro-2-methylphenoxymethyl)-1,3,3-trimethyl-3,4-dihydro-1H-quinoxalin-2-one] | 84 |
| COc1cc(OS(=O)(=O)C2CC2)ccc1-c1ccc2c(c1COC(=O)c1ccc(C)s1)N(C)C(=O)C(C)(C)N2 [Compound No. 1-19, 7-(4-Cyclopropylsulfonyloxy-2-methoxyphenyl)-8-(5-methyl-thiophen-2-ylcarbonyloxymethyl)-1,3,3-trimethyl-3,4-dihydro-1H-quinoxalin-2-one] | 88 |
| COc1cc(OS(=O)(=O)CC(C)C)ccc1-c1ccc2c(c1COC(=O)c1ccc(C)s1)N(C)C(=O)C(C)(C)N2 [Compound No. 1-21, 7-(4-Isobutylsulfonyloxy-2-methoxyphenyl)-8-(5-methylthiophen-2-ylcarbonyloxymethyl)-1,3,3-trimethyl-3,4-dihydro-1H-quinoxalin-2-one] | 71 |
| CCCS(=O)(=O)Oc1ccc(-c2ccc3c(c2COc2cc([N+](=O)[O-])ccc2OC)N(C)C(=O)C(C)(C)N3)c(OC)c1 [Compound No. 1-31, 8-(2-Methoxy-5-nitrophenoxymethyl)-7-(2-methoxy-4-propyl-sulfonyloxyphenyl)-1,3,3-trimethyl-3,4-dihydro-1H-quinoxalin-2-one] | 76 |
| COc1cc(OS(=O)(=O)Cc2ccccc2Cl)ccc1-c1ccc2c(c1COc1cc(F)ccc1C)N(C)C(=O)C(C)(C)N2 [Compound No. 1-14, 7-[4-(2-Chlorobenzylsulfonyloxy)-2-methoxyphenyl]-8-(5-fluoro-2-methylphenoxymethyl)-1,3,3-trimethyl-3,4-dihydro-1H-quinoxalin-2-one] | 86 |
| COc1cc(OS(=O)(=O)Cc2ccccc2C)ccc1-c1ccc2c(c1COc1cc(F)ccc1C)N(C)C(=O)C(C)(C)N2 [Compound No. 1-15, 8-(5-Fluoro-2-methylphenoxymethyl)-7-[2-methoxy-4-(2-methylbenzyl-sulfonyloxy)phenyl]-1,3,3-trimethyl-3,4-dihydro-IH-quinoxalin-2-one] | 88 |
| CCCNCCCS(=O)(=O)Oc1ccc(-c2ccc3c(c2COc2cc(F)ccc2C)N(C)C(=O)C(C)(C)N3)c(OC)c1 [Compound No. 3-2, 8-(5-Fluoro-2-methylphenoxymethyl)-7-[2-methoxy-4-(3-propylaminopropyl-sulfonyloxy)phenyl]-1,3,3-trimethyl-3,4-dihydro-1H-quinoxalin-2-one] | 70 |
| COc1cc(OS(C)(=O)=O)ccc1-c1ccc2c(c1COC(=O)c1ccc(C)s1)N(C)C(=O)C(C)(C)N2 [Compound No. 1-3, 7-(2-Methoxy-4-methylsulfonyloxyphenyl)-8-(5-methylthiophen-2-ylcarbonyloxymethyl)-1,3,3-trimethyl-3,4-dihydro-1H-quinoxalin-2-one] | 70 |
| COc1cc(OS(C)(=O)=O)ccc1-c1ccc2c(c1COc1cc([N+](=O)[O-])ccc1C)N(C)C(=O)C(C)(C)N2 [Compound No. 1-36, 7-(2-Methoxy-4-methylsulfonyloxyphenyl)-8-(2-methyl-5-nitro-phenoxymethyl)-1,3,3-trimethyl-3,4-dihydro-1H-quinoxalin-2-one] | 72 |
| COc1cc(OS(=O)(=O)C2CCCCC2)ccc1-c1ccc2c(c1COc1cc(F)ccc1C)N(C)C(=O)C(C)(C)N2 [Compound No. 1-17, 7-(4-Cyclohexylsulfonyloxy-2-methoxyphenyl)-8-(5-fluoro-2-methylphenoxymethyl)-1,3,3-trimethyl-3,4-dihydro-1H-quinoxalin-2-one] | 83 |
| COc1ccc([N+](=O)[O-])cc1OCc1c(-c2ccc(OS(=O)(=O)C3CC3)cc2OC)ccc2c1N(C)C(=O)C(C)(C)N2 [Compound No. 1-30, 7-(4-Cyclopropylsulfonyloxy-2-methoxyphenyl)-8-(2-methoxy-5-nitrophenoxymethyl)-1,3,3-trimethyl-3,4-dihydro-1H-quinoxalin-2-one] | 74 |
